Results on two compounds are retold here after US11766467B2, “Methods of treating wounds using cathepsin K inhibitors” (University of Wyoming, priority 2017, dated 2023).

In test [1] the test system is full-thickness wounds in diabetic pigs. In words: porcine diabetic (streptozotocin) wound healing model, full-thickness wounds, intradermal injections. The test is classed as in vivo. The note with it: for wound closure: both the higher (300 ng/mm^2) and lower (30 ng/mm^2) doses; for wound closure / wound healing (in words): diabetic pigs. The protocol:
Odanacatib is a potent and selective inhibitor of cathepsin K and can be administered to promote wound healing in diabetic pigs. Pigs (3-4 months old) were rendered diabetic with intravenous injection of streptozotocin (75 mg/Kg). Four weeks following streptozotocin injections 6-10 full-thickness (one-inch square, ˜[…] thickness) wounds were created in two columns on each side of the dorsal thoracolumbar midline. […] Wounds were photographed prior to treatment and analyzed for wound closure rates.
Data are expressed as mean±SEM (n=8 for vehicle and 6 each for odanacatib treatment). […] Because some values are missing as we had euthanized one pig from each group on day 14 for molecular analysis, the data were analyzed by fitting a mixed model, rather than by repeated measures ANOVA. […]

The subject of test [2] is cultured human fibroblasts. As to the kind of experiment: in vitro monolayer wound-healing assay (cell migration under high glucose). It counts as cell-based. The settings on record: high glucose 25 mM, 100 ng/ml inhibitor, 5 μg/ml hydroxyurea, 72 h after wounding. How it is done:
Referring now to FIGS. 1A-1B, the in vitro monolayer wound-healing assay mimics cell migration during wound healing. An in vitro monolayer wound-healing assay in cultured human fibroblasts was used to test whether pharmacological inhibition of cathepsin K affected cell migration under high-glucose (25 mM) conditions. Mannitol was included to control for osmotic pressure and hydroxyurea to eliminate the potential effects of cell proliferation.
Referring again to FIGS. 1A-1B, inhibition of cathepsin reverses the inhibitory effect of high glucose (HG) on cell migration in a monolayer wound-healing assay. Confluent human fibroblasts were serum starved and subjected to a media containing low (5 mM, LG) or high (25 mM, HG) glucose. The cell monolayer was wounded with a linear scratch using a sterile pipette tip and treated with 100 ng/ml of cathepsin K inhibitor-II in the presence of 5 μg/ml hydroxyurea. At 0 time (upper left panel) and 72 h (lower left panel) after wounding, the cells were photographed using an inverted microscope equipped with a digital camera. Scale bar=600 μm. FIG. 1A. Representative phase-contrast images for each treatment group. FIG. 1B. Bar graph represents the percentage wound closure 72 h after wounding as measured using the NIH Image J software and represented as mean±SEM, n=6, *p<0.01 compared to LG; **p<0.05 compared to LG.

The test system of test [3] is excisional skin wounds in genetically diabetic db/db mice. As to the kind of experiment: excisional skin wound healing in genetically diabetic db/db mice, topical inhibitor. The test is classed as in vivo. The settings on record: treated along the circumference of the wound. The protocol:
FIG. 5 illustrates the effect of a topically delivered pharmacological inhibitor of cathepsin K on wound healing in genetically diabetic mice. Excisional skin wounds were created in genetically diabetic db/db mice and the wounds were treated along the circumference of the wounds with cathepsin K inhibitor II or vehicle. Wound healing was evaluated by measuring the wound closure rate and histomorphometric analysis. […] In contrast, wounds in the vehicle treated group remain unhealed during this time period. Heterozygous (db/db^+/−) mice were used as controls in these studies.

As to `CC(C)(F)C[C@H](N[C@@H](c1ccc(-c2ccc(S(C)(=O)=O)cc2)cc1)C(F)(F)F)C(=O)NC1(C#N)CC1` [odanacatib], the wound closure in test [1] (day 21 post-wounding) is roughly 93%.
`CC(C)C[C@H](NC(=O)OCc1ccccc1)C(=O)NNC(=O)NNC(=O)[C@H](CC(C)C)NC(=O)[C@H](Cc1ccccc1)NC(=O)OC(C)(C)C` [CatKI-II, 1-(N-Benzyloxycarbonyl-leucyl)-5-(N-Boc-phenylalanyl-leucyl) carbohydrazide]: the “fibroblast migration / monolayer wound closure” value in test [2] is “increased migration beyond that observed in the cells treated with a low-glucose media”. Further, the wound resolution result is “significant resolution of wound” in test [3] (day 12) and “almost complete resolution” in test [3] (day 15). The “Tukey's multiple comparisons test, Summary” value in test [1] (Table 1, D 3, 30 vs. 300 ng/mm^2) was “ns”; in test [1] (Table 1, D 3, Vehicle vs. 300 ng/mm^2), “ns”; in test [1] (Table 1, D 7, 30 vs. 300 ng/mm^2) it was “ns”; in test [1] (Table 1, D 7, Vehicle vs. 300 ng/mm^2), “ns”; in test [1] (Table 1, D 7, Vehicle vs. 30 μg/mm^2) it was “ns”; in test [1] (Table 1, D 14, Vehicle vs. 300 ng/mm^2) it was “ns”. In addition, the “Tukey's multiple comparisons test, Summary” value in test [1] (Table 1, D 21, Vehicle vs. 300 ng/mm^2) is “ns”; in test [1] (Table 2, D 3, 30 vs. 300 ng/mm^2), “ns”; in test [1] (Table 2, D 3, Vehicle vs. 300 ng/mm^2), “ns”; in test [1] (Table 2, D 7, 30 vs. 300 ng/mm^2) it was “ns”; in test [1] (Table 2, D 7, Vehicle vs. 300 ng/mm^2), “ns”; in test [1] (Table 2, D 7, Vehicle vs. 30 μg/mm^2), “ns”. The “Tukey's multiple comparisons test, Summary” value is listed as “ns” in test [1] (Table 2, D 14, Vehicle vs. 300 ng/mm^2) and “ns” in test [1] (Table 2, D 21, Vehicle vs. 300 ng/mm^2). The compound further returned a wound closure in test [1] (day 21 post-wounding) of roughly 93%. Also, the “wound closure / wound healing (in words)” value in test [1] was “facilitate wound closure”; in test [1] (listed as Cathepsin K inhibitor II), “promotes wound healing”. Besides, the “wound area: improvement in wound healing” value in test [1] (lower dose 30 ng/mm^2/wound, day 21 post-wounding) was “statistically significant improvement in wound healing compared to both vehicle and the higher dose”.
